Results taken from US10676507B2, “Peptide and composition containing the same for anti-inflammation, anti-fibrosis, wound healing, and anticancer treatment” (GemVax & KAEL CO., LTD., priority 2015, dated 2020).

Columns and labels:
[1] = test system: TGF-β; assay: Western blotting of TGF-β signaling inhibition (pSmad2/3, Smad2/3) in HepG2 cell line; type: cell-based, human; settings: 10 μM peptide
Procedure: To identify an inhibitory effect of TGF-β, considered as the main cause of fibrosis, of the novel peptides Pep-WH-1 to Pep-WH-12, an experiment for confirming a TGF-β signaling inhibitory action in a HepG2 cell line was carried out as follows.
Reagents and materials used in the present experiment are as follows. Powder-type novel peptides were dissolved in 0.2 μm filtered sterile water, and then stored in the form of aliquots at −70° C., and, when in use, the stored peptides were thawed. A HepG2 cell line (ATCC HB-8065; American Type Culture Collection) was used, and recombinant human TGF-β was dissolved in 4 mM HCl to prepare a 10 μg/mL stock. SB431542 (Sigma) as a positive control was used after being prepared into 10 mM stock.
2×10^6 HepG2 cells (ATCC HB-8065) were seeded in a 60 mm petri dish, and then cultured in a CO2 incubator for 16 hours. Subsequently, the medium was replaced by a serum-free medium (SFM) and further cultured for 24 hours. Thereafter, the medium was replaced with 10 ng/mL of TGF-β1, and the HepG2 cells were treated with each of the novel peptides at each concentration (1 μM and 10 μM) and then cultured for 72 hours. Groups treated with the respective novel peptides were further cultured in a CO2 incubator at 37° C. for 1 hour.
To measure anti-fibrotic activities of the novel peptides, an experiment for measuring a degree of TGF-β signaling inhibition was carried out by western blotting, and a detailed description of the experimental method is as follows.
Cells treated with each peptide were washed twice with PBS, collected in a 1.5 mL EP tube using a cell scraper, and then centrifuged using a centrifugal separator (1,000 rpm, 4° C., 2 minutes) to remove the supernatant, and then 100 μL each was added to RIPA-treated HepG2 cells. The HepG2 cells were incubated on ice for 40 minutes, and then mixed by shaking every 10 minutes (vertex, micro-centrifuge pre-cooled to 4° C.), and each sample was mixed 40 times to 50 times using a 1 mL syringe. Lastly, the resulting mixture was centrifuged at 13,000 rpm for 15 minutes and the obtained supernatant was used.
30 μg of protein was subjected to 8% sodium dodecyl sulfate-polyacrylamide gel electrophoresis (SDS-PAGE) to be transferred to polyvinylidene difluoride (PVDF) membranes (Millipore). The PVDF membranes were blocked with 5% skim milk and incubated with particular primary antibodies. The antibodies used in this experiment are as follows: Smad 2/3 (60, 52 kDa, 5% BSA 1:1000, #3102, Cell signaling), pSmad2/3 (cell signaling #3102), and GAPDH (37 kDa, 5% BSA 1:1000, #2118, Cell signaling). Subsequently, the PVDF membranes were washed with tris-buffered saline containing 0.1% Tween-20 (TBST), and then reacted with an HRP-conjugated anti-rabbit antibody (manufactured by Jackson ImmunoResearch Laboratories, Inc.). Afterwards, ECL detection (Amersham Pharmacia Biotech) was performed thereon, and the acquired images were analyzed using an image analyzer (GE Healthcare, ImageQuant LAS 4000).
To measure TGF-β inhibitory effects, pSmad2/3 and Smad2/3 were used as TGF-β signaling activity markers, and GAPDH was used as a reference group in electrophoresis. The TGF-β signaling activity markers which were expressed at a high concentration as TGF-β was inhibited were used.
(§1) All data are expressed as mean±S.E.M., and statistical processing was performed by an ANOVA test. The SigmaStat statistical program was used and statistical analysis was performed using a Kruskal-Wallis test and a Mann-Whitney U-test. In addition, comparison between the groups was performed using a Tukey test and a p value less than 0.05 was determined as statistically significant.

[2] = test system: TNF-α; assay: ELISA of TNF-α amounts in LPS-induced THP-1 cells; type: cell-based, human; settings: all the concentrations (1 μM, 5 μM, 10 μM); FIG. 2
Procedure: (§2) An experiment was carried out using THP-1 cells (American Type Culture Collection (ATCC), Manassas, Va., USA), which is a human acute monocytic leukemia cell line. THP-1 cells were suspended in RPMI 1640 medium to a concentration of 1×10^5 cells per well in a 96 well plate and incubated for 24 hours. At this time, the THP-1 cells were treated with phorbol 12-myristate 13-acetate (PMA) (Sigma) to differentiate into macrophages.
The ELISA test method was as follows. THP-1, which is a monocyte cell line distributed from ATCC, was sub-cultured and prepared in the P3 stage, and the cell line was distributed into wells of a well plate and treated with PMA to differentiate into macrophages. The differentiated cells were treated with LPS to induce an inflammatory reaction (to induce the production of TNF-alpha), and were treated with each of the novel peptides at each concentration (1 μM, 5 μM, and 10 μM), and the amounts of TNF-α were measured by ELISA. Relative values for a non-inflammation group and a complete inflammation group were calculated, and estrogen (E2) was set as a positive control and a non-treated cell line not treated with the novel peptides was set as a general control to perform comparative analysis. E2 is known as a steroid that inhibits the production of TNF-α in THP-1.
as §1, with “mean±standard error of the mean (S.E.M.),” for “mean±S.E.M.,”, “A” for “The”

[3] = test system: wound-induced SD rats; assay: Wound area in full-thickness excision wound-induced animal model; type: in vivo, Sprague-Dawley (SD) rats; settings: 50 μL of 100 μg/mL applied every two days
Procedure: To confirm wound healing effects of the novel peptides Pep-WH-8, Pep-WH-9, Pep-WH-11, and Pep-WH-1, a wound-induced animal model was treated with each of the novel peptides, and then an experiment to confirm an effect of each peptide in producing collagen needed for a decrease in wound size and in a wound healing process was carried out as follows.
Sprague-Dawley (SD) rats were selected because mice have thin skins and it is difficult to uniformly induce a wound in mice. To exclude effects due to hormonal changes, male SD rats were selected and 6-week-old SD rats were purchased and acclimated for about 1 week. However, to more precisely obtain experimental results, an experiment was carried out after the 6-week-old SD rats became 11 weeks old. Since experimental animals are sensitive to olfactory responses and may attack other individual, individuals were separated from each other after wounds were formed, such as 1 rat for each cage, and observed.
The following method was used to form full-thickness excision in the prepared experimental animals. To induce anesthesia, a mixture of 10 mg/kg (body weight) of xylazine-HCl and 100 mg/kg (body weight) of ketamine HCl were intraperitoneally injected into the experimental animals or the experimental animals were administered the mixture via a respiratory anesthesia system. After the induction of anesthesia, hairs on the back of the experimental animal in a prone position were shaved cleanly, the back was disinfected with betadine, and then one circular full-thickness excision was made on a site apart from the highest portion of the back to each of left and right sides by a distance of about 1 cm, using a 16 mm punch. Separate dressing was not performed on the wound sites.
The full-thickness excision-induced animal model was divided into the following groups and a drug was applied on each group immediately after the formation of the excision and every two days. For the application method, a material was adjusted to a concentration of 1 mg/mL, and then, immediately before the experiment, the material was diluted 10 times to a concentration of 100 μg/mL. 50 μL of the material was applied dropwise on each excision.
[…] When the wounds were completely healed, the wound healing date was recorded. Generally, on about day 9, individuals with the wound sizes decreased to 5% of the initial wounds began to appear. The wound sites were photographed with a ruler, and then the acquired images were analyzed using the Image J program (NIH, USA) to calculate wound areas, and the wound areas were compared with each other.

[4] = test system: TNF-α; assay: RT-qPCR of TNF-α mRNA expression in LPS-treated THP-1 cells; type: cell-based, human; settings: 1 μM, the lowest treatment concentration; FIG. 1
Procedure: as §2
The RT-qPCR test method was as follows. THP-1 cells were plated on a 6-well plate at a concentration of 2×10^6 cells/well and treated with 100 ng/mL of PMA for 24 hours to differentiate into macrophages. The media were removed and the differentiated THP-1 cells were washed twice with serum-free media (SFM), and then each novel peptide was treated with 10 ng/mL of LPS at each concentration of 1 μM, 5 μM, and 10 μM for 6 hours. RNA was extracted using RNeasy® Plus Mini Kit (Qiagen), and the extracted RNA was quantified and then cDNA synthesis was performed using a Reverse Transcription System (Promega). […]
All data are expressed as mean±standard error of the mean (S.E.M.), and statistical processing was performed by an ANOVA test. […] In addition, comparison between the groups was performed using a Tukey test and a p value less than 0.05 was determined as statistically significant.

[5] = day 3 after full-thickness excision
[6] = day 1 after full-thickness excision

Substance | TGF-β inhibitory activity compared to positive control 10 μM SB431542 [1] | inflammation-inducing activity (TNF-α amount) compared to E2 positive control [2] | other results
ALSSRLRF (Pep-WH-3 peptide) | higher TGF-β inhibitory activity | – | –
ALSTRLRA (Pep-WH-4 peptide) | higher TGF-β inhibitory activity | – | –
ALSTRLRF (Pep-WH-6 peptide) | higher TGF-β inhibitory activity | – | –
ALSTRLRG (Pep-WH-5 peptide) | higher TGF-β inhibitory activity | – | –
ALTSKLRF (Pep-WH-12 peptide) | higher TGF-β inhibitory activity | lower inflammation-inducing activity | wound size compared to control [3, 5]: smaller wound size
ALTSRVRA (Pep-WH-7 peptide) | higher TGF-β inhibitory activity | – | –
ALTSRVRF (Pep-WH-9 peptide) | – | lower inflammation-inducing activity | wound size compared to control [3, 6]: smaller wound size
ALTSRVRG (Pep-WH-8 peptide) | – | lower inflammation-inducing activity | wound size compared to control [3, 5]: smaller wound size
Pep-WH-11: novel peptide prepared by the same method as Pep-WH-1; sequence not printed in Table 2 (ALSTRLRG; Pep-WH-11 peptide) | – | lower inflammation-inducing activity | anti-inflammatory activity (TNF-α mRNA inhibition), comparison among peptides [4]: highest anti-inflammatory activity; wound size compared to control [3, 6]: smaller wound size
